In patent US12497359B2, “Acrylamide derivatives” (NRG Therapeutics Ltd, priority 2020, dated 2025):
Converted amounts (≈) assume the structure as drawn.

Legend:
mPTP = mPTP activity assay in isolated rat liver mitochondria (Ca2+ retention, Fluo5N, FLIPR); format: biochemical; conditions: for mPTP Rat liver pIC50*: isolated rat liver mitochondria, average value from multiple experiments (n ≥ 2)
Source text: Pharmacological inhibition or modulation of the mPTP can be measured in well characterised ‘Ca^2+ retention’ assays performed in isolated mitochondria. In vitro, isolated mitochondria rapidly sequester exogenous Ca^2+ until the intramitochondrial Ca^2+ concentration reaches the threshold for mPTP activation. Once the pore is activated, mitochondrial integrity is compromised and the stored Ca^2+ is released. The distribution of Ca^2+ between extra- and intra-mitochondrial compartments can be measured in real time with the use of membrane-impermeant Ca^2+ sensitive fluorescent dyes. Depending on the configuration of the assay, inhibition or modulation of the mPTP either delays the opening of the pore or increases the concentration of Ca^2+ required to induce mPTP opening.
mPTP activity was measured in mitochondria freshly isolated from female Sprague Dawley (250 to 300 gram) rat livers using the following method. Cervical dislocation was performed on the rat. The liver was then perfused in-situ with ˜40 ml cold Dulbecco's Phosphate Buffered Saline (DPBS) prior to dissection and transferred into 30 ml Isolation Buffer (250 mM Sucrose, 10 mM KCl, 1 mM EGTA, 1 mM EDTA, 25 mM HEPES, adjusted to pH 7.5 with 1 M NaOH). Each lobe of the liver was then removed from the buffer, minced using tweezers and a scalpel into ˜5 mm pieces then transferred into a 50 ml Potterton dounce homogenization tube on ice containing 30 ml ice-cold centrifugation buffer (300 mM Trehalose, 25 mM HEPES, 1 mM EGTA, 1 mM EDTA, 10 mM KCl, adjusted to pH 7.5 with 1 M NaOH and supplemented with 0.1% bovine serum albumin (BSA) and complete protease inhibitor cocktail (one tablet of inhibitor per 50 mls of buffer). Homogenisation was carried out using a teflon pestle at 1800 rpm. The slurry was centrifuged at 800 g for 10 min at 4° C., then the supernatant centrifuged at 10,000 g for 10 min. The pellet was washed once with FLIPR assay buffer (75 mM Mannitol, 25 mM Sucrose, 5 mM Potassium Phosphate Monobasic, 20 mM Tris base, 100 mM KCl, 0.1% BSA adjusted to pH 7.4 with 5 M HCl) centrifuged again, then resuspended in FLIPR assay buffer to a concentration of 8.8 mg/ml protein.
Test compounds (10 mM stock in DMSO) were serially diluted in DMSO in half log steps to generate 10 test concentrations (final concentrations in assay 30 μM to 1 nM). An intermediate dilution of 5 μl DMSO samples into 247 μl FLIPR assay buffer was carried out prior to transfer of 5 μl into duplicate wells of a 384 well polypropylene assay plate. Control wells were 0.5% (v/v) DMSO and 5 μM cyclosporin A.
A stock mitochondria/Fluo5N assay solution was prepared in 5.6 ml FLIPR assay buffer (at RT) supplemented with succinate disodium salt (10 mM), rotenone (1 μM), Fluo5N pentapotassium salt (2 μM) and 1 ml mitochondria suspension, then transferred (15 μl) into the assay plate containing test compounds and incubated for 10 min at RT. Assay plates were then transferred to a FLIPR Tetra plate reader (Molecular Devices). Dye fluorescence was then measured every 3 sec for a total of 10 min. After 12 sec, a 2.5 μl bolus of CaCl2 (75 μM) was added from a source plate containing 675 μM CaCl2 in FLIPR assay buffer. IC50 values for test compounds were calculated using the fluorescence value collected at the 10 min timepoint with % inhibition calculated using the DMSO control and cyclosporin A values as […] respectively.

PBS solubility = format: physicochemical; conditions: aqueous buffer, kinetic from dmso stock; PBS pH 7.4, 2 hr at 25° C.
Description: (§1) Test compounds were prepared as 10 mM stocks in DMSO and 15 μl samples transferred in duplicate into 1.5 mL glass flat bottom vials (BioTech Solutions). Fasted state simulated intestinal fluid (FaSSIF) or PBS (pH 7.4) was added to each vial to final volume of 500 μl. One PTFE encapsulated stir stick (V&P Scientific) was placed in each vial before sealing with PTFE/SIL plugs (BioTech Solutions). Vials were shaken at 1100 rpm for 2 hr at 25° C. Samples were then filtered through MultiScreen Solvinert filter plates (Millipore) via vacuum filtration. Aliquots of filtrate (5 μl) plus 5 μl DMSO were diluted in 490 μl 50% acetonitrile in water containing internal standard. The filtrate was analysed and quantified against a standard of known concentration using LC-MS/MS. Solubility values of the test compound and control compound were calculated as follows: [Sample]=(Area ratiosample*INJ VOL STD*DFsample*[STD])/(Area ratio STD*INJ VOLsample).

[1] = Hepatocyte clearance assay, rat; format: in vitro ADME; conditions: cryopreserved primary rat hepatocytes, average value from two experiments, read-out: Rat heps intrinsic clearance (CLint)
Description: (§2) In vitro clearance studies were performed in primary rat and human hepatocytes (BioIVT). Vials of cryopreserved rat or human hepatocytes were thawed in a 37° C. water bath for 2 min. Cells were transferred into thawing medium (Williams' Medium E containing 30% Percoll, 1× GlutaMAX-1, 15 mM HEPES, 5% fetal bovine serum (FBS), 4 μg/ml insulin, 1 μM dexamethasone), centrifuged at 100 g for 10 min then resuspended in culture medium (Leibovitz's L-15 Medium) at a concentration of 0.5×10^6 viable cells/mL (number of viable cells assessed using AO/PI staining). Hepatocytes (198 μL) were transferred into wells of a 96-well non-coated plate and placed in a 37° C. incubator for 10 min. Test compound solutions were prepared from 10 mM stocks in DMSO, diluted to 100 μM in 50% (v/v in water) acetonitrile. Test compound samples (2 μl) were added to each well of hepatocytes and incubated at 37° C. Samples (25 μl) were collected at t=0, 15, 30, […] and 120 min, mixed with 6 volumes (150 μl) of acetonitrile containing internal standard (100 nM alprazolam, 200 nM caffeine and 100 nM tolbutamide), vortexed for 5 min and centrifuged for 45 min at 3220 g. An aliquot of supernatant (100 μL) was diluted with 100 μL ultra-pure water, and the mixture was used for LC/MS/MS analysis. All incubations were performed in duplicate. Peak areas were determined from extracted ion chromatograms. The slope value, k, was determined by linear regression of the natural logarithm of the remaining percentage of the parent drug vs. incubation time curve. The in vitro half-life (in vitro t1/2) was determined from the slope value: in vitro t1/2=0.693/k. Conversion of the in vitro t1/2 (in min) into the in vitro intrinsic clearance (in vitro CLint, in μL/min/1×10^6 cells) was done using the following equation (mean of duplicate determinations): • in vitro CLint=kV/N • V=incubation volume (0.2 mL) • N=number of hepatocytes per well (0.1×10^6 cells). Microsomal Clearance Assay

[2] = Microsomal clearance assay, rat liver microsomes; format: in vitro ADME; conditions: average value from two experiments, read-out: Rat liver microsomes intrinsic clearance (CLint)
Description: The microsomal stability of test compounds was evaluated using rat liver microsomes (BioIVT) with and without the cofactors nicotinamide adenine dinucleotide phosphate (NADPH) and uridine-diphosphate-glucuronic acid (UDPGA). Reactions were performed in a final volume of 250 μl pre-warmed (37° C.) 100 mM phosphate buffer containing 5 mM MgCl2, 0.025 mg/ml alamethicin, and 0.5 mg/ml rat liver microsomes. NADPH and UDPGA were included at 1 mM and 2 mM respectively, where appropriate. Reactions were started with the addition of 1 μM (final concentration) test compound. Verapamil was used as the positive control. Solutions were incubated in a water bath at 37° C. and aliquots collected at 0.5, 5, 15, 30 and 60 min. Reactions were stopped by the addition of 5 volumes of cold acetonitrile with internal standards (200 nM caffeine and 100 nM tolbutamide). Samples were centrifuged at 3220 g for 40 min. An aliquot of supernatant was diluted 1:1 In ultra-pure H20, then used for LC-MS/MS analysis. Peak areas were determined from extracted ion chromatograms. The slope value, k, was determined by linear regression of the natural logarithm of the remaining percentage of the parent drug vs. incubation time curve. The in vitro half-life (in vitro t1/2) was determined from the slope value: in vitro t1/2=0.693/k. Conversion of the in vitro t1/2 (min) into the in vitro intrinsic clearance (in vitro CLint, in μL/min/mg protein) was done using the following equation (mean of duplicate determinations): in vitro Clint=(0.693/t1/2)*(Vol of incubation (μl)/amount of protein (mg)).

FaSSIF solubility = format: physicochemical; conditions: kinetic from dmso stock, Fasted state simulated intestinal fluid, 2 hr at 25° C.
Description: as §1

[3] = Hepatocyte clearance assay, human; format: in vitro ADME; conditions: cryopreserved primary human hepatocytes, average value from two experiments, read-out: Human heps intrinsic clearance (CLint)
Description: as §2

C[C@@H]1CCCC[C@H]1NC(=O)/C=C/c1ccc2cn[nH]c2c1 (racemic) [Example 4, (E)-3-(1H-indazol-6-yl)-N-((1R,2R)-2-methylcyclohexyl)acrylamide]
mPTP Rat liver pIC50* (mPTP): 6.3 | solubility at 2 h (PBS solubility): 5.2 µM (≈ 1.47 µg/mL) | hepatocyte CLint at 1 µM [1]: 68 µL/min/1e6 cells | microsomal CLint at 1 µM [2]: 39 µL/min/mg

Cc1c(F)cccc1NC(=O)/C=C/c1ccc2cn[nH]c2c1C [Example 1, (E)-N-(3-fluoro-2-methylphenyl)-3-(7-methyl-1H-indazol-6-yl)acrylamide]
mPTP Rat liver pIC50* (mPTP): 7.1 | solubility at 2 h (PBS solubility): 0.11 µM (≈ 0.034 µg/mL) | solubility at 2 h (FaSSIF solubility): 2 µM (≈ 0.619 µg/mL) | microsomal CLint at 1 µM [2]: 118 µL/min/mg

O=C(/C=C/c1ccc2cn[nH]c2c1)NC1CCc2ccccc21 (centres unmarked) [Example 2, (E)-N-(2,3-dihydro-1H-inden-1-yl)-3-(1H-indazol-6-yl)acrylamide]
mPTP Rat liver pIC50* (mPTP): 7.6 | solubility at 2 h (PBS solubility): 10 µM (≈ 3.03 µg/mL) | hepatocyte CLint at 1 µM [1]: 33 µL/min/1e6 cells | microsomal CLint at 1 µM [2]: 59 µL/min/mg | hepatocyte CLint at 1 µM [3]: 14 µL/min/1e6 cells

O=C(/C=C/c1ccc2cn[nH]c2c1)NC1CCc2cccc(F)c21 (centres unmarked) [Example 5, (E)-N-(7-fluoro-2,3-dihydro-1H-inden-1-yl)-3-(1H-indazol-6-yl)acrylamide]
mPTP Rat liver pIC50* (mPTP): 6.3 | solubility at 2 h (PBS solubility): 2.5 µM (≈ 0.803 µg/mL) | microsomal CLint at 1 µM [2]: 55 µL/min/mg

O=C(/C=C/c1ccc2cn[nH]c2c1)NC1CCc2cc(F)ccc21 (centres unmarked) [Example 7, (E)-N-(5-fluoro-2,3-dihydro-1H-inden-1-yl)-3-(1H-indazol-6-yl)acrylamide]
mPTP Rat liver pIC50* (mPTP): 7.2 | solubility at 2 h (PBS solubility): 4.1 µM (≈ 1.32 µg/mL) | microsomal CLint at 1 µM [2]: 38 µL/min/mg

O=C(/C=C/c1ccc2cn[nH]c2c1)NC1CCc2c(F)cccc21 (centres unmarked) [Example 8, (E)-N-(4-fluoro-2,3-dihydro-1H-inden-1-yl)-3-(1H-indazol-6-yl)acrylamide]
mPTP Rat liver pIC50* (mPTP): 6.9 | solubility at 2 h (PBS solubility): 6.3 µM (≈ 2.02 µg/mL) | microsomal CLint at 1 µM [2]: 41 µL/min/mg

O=C(/C=C/c1ccc2cn[nH]c2c1F)NC1CCc2ccccc21 (centres unmarked) [Example 9, (E)-N-(2,3-dihydro-1H-inden-1-yl)-3-(7-fluoro-1H-indazol-6-yl)acrylamide]
mPTP Rat liver pIC50* (mPTP): 7.2 | solubility at 2 h (PBS solubility): 0.4 µM (≈ 0.129 µg/mL) | solubility at 2 h (FaSSIF solubility): 11 µM (≈ 3.53 µg/mL) | hepatocyte CLint at 1 µM [1]: 61 µL/min/1e6 cells

O=C(/C=C/c1cc(F)c2cn[nH]c2c1)NC1CCc2ccccc21 (centres unmarked) [Example 11, (E)-N-(2,3-dihydro-1H-inden-1-yl)-3-(4-fluoro-1H-indazol-6-yl)acrylamide]
mPTP Rat liver pIC50* (mPTP): 7.3 | solubility at 2 h (PBS solubility): 1.4 µM (≈ 0.45 µg/mL) | hepatocyte CLint at 1 µM [1]: 45 µL/min/1e6 cells | microsomal CLint at 1 µM [2]: 58 µL/min/mg | hepatocyte CLint at 1 µM [3]: 26.7 µL/min/1e6 cells

O=C(/C=C/c1cc(Cl)c2cn[nH]c2c1)NC1CCc2ccccc21 (centres unmarked) [Example 13, (E)-3-(4-chloro-1H-indazol-6-yl)-N-(2,3-dihydro-1H-inden-1-yl)acrylamide]
mPTP Rat liver pIC50* (mPTP): 7.0 | solubility at 2 h (FaSSIF solubility): 4 µM (≈ 1.35 µg/mL) | hepatocyte CLint at 1 µM [1]: 95 µL/min/1e6 cells

Cc1ccc(F)c(C)c1NC(=O)/C=C/c1ccc2cn[nH]c2c1 [Example 28, (E)-N-(3-fluoro-2,6-dimethylphenyl)-3-(1H-indazol-6-yl)acrylamide]
activity in the rat liver mitochondria assay (mPTP; comparison among Example compounds, in words): highest activity | mPTP Rat liver pIC50* (mPTP): 8.1 | hepatocyte CLint at 1 µM [3]: 21 µL/min/1e6 cells

O=C(/C=C/c1ccc2cn[nH]c2c1)Nc1ccccc1CN1CC(F)C1 [Example 31, (E)-N-(2-((3-fluoroazetidin-1-yl)methyl)phenyl)-3-(1H-indazol-6-yl)acrylamide]
mPTP Rat liver pIC50* (mPTP): 6.3 | solubility at 2 h (PBS solubility): 59 µM (≈ 20.7 µg/mL) | hepatocyte CLint at 1 µM [1]: 101 µL/min/1e6 cells | hepatocyte CLint at 1 µM [3]: 36 µL/min/1e6 cells

Cc1c(F)cccc1NC(=O)/C=C/c1cnc2cn[nH]c2c1 [Example 34, (E)-N-(3-fluoro-2-methylphenyl)-3-(1H-pyrazolo[4,3-b]pyridin-6-yl)acrylamide]
mPTP Rat liver pIC50* (mPTP): 6.0 | solubility at 2 h (PBS solubility): 13 µM (≈ 3.85 µg/mL) | microsomal CLint at 1 µM [2]: 51 µL/min/mg

O=C(/C=C/c1ccc2cn[nH]c2n1)NC1CCc2ccccc21 (centres unmarked) [Example 36, (E)-N-(2,3-dihydro-1H-inden-1-yl)-3-(1H-pyrazolo[3,4-b]pyridin-6-yl)acrylamide]
mPTP Rat liver pIC50* (mPTP): 6.3 | solubility at 2 h (FaSSIF solubility): 45 µM (≈ 13.7 µg/mL) | hepatocyte CLint at 1 µM [3]: 12 µL/min/1e6 cells
